Laboratory results reported in patent US10849959B2, “Formulation, dosage form and method of reducing knee pain” (ORTHOTROPHIX, INC., priority 2017, dated 2020).
Where two headings read alike, the source gives them in different places.

Legend:
[1] = tested on: subjects with bilateral patello-femoral knee osteoarthritis
Procedure: Eighteen (18) orthopedic, rheumatologic and family practice centers in the U.S. participated in the study.
A Safety Review Committee (SRC) evaluated safety in each dosing cohort. The SRC assessed safety and dose-limiting toxicities, if evident, and determined whether the next higher dosing regimen might be enrolled. Part A were completed and analyzed with regard to safety prior to dose selection and initiation of Part B.
Six (6) subjects were enrolled in 20, 50, and 100 mg cohorts, respectively, and nine (9) subjects were enrolled in 200 mg cohort. Each dosing cohort was reviewed based on safety analysis of dose groups in Part A.
No other doses of drug or placebo were administered. All subjects visited their respective clinical sites at 3, 6, and 12 months after the first dosing for their safety and efficacy assessments.
On the first dosing day, the randomized subjects were assessed for their general health conditions by physical examinations and vital signs. Further, they completed self-reported assessments of the conditions of each of their knees as well as systemic health by the questionnaires of KOOS (Knee injury and Osteoarthritis Outcome Score), which includes subscales of WOMAC (Western Ontario and McMaster Universities Osteoarthritis Index). KOOS is a questionnaire that assesses knee-specific activities of daily living, sports and recreation function, knee-related quality of life, symptom, and knee pain. […] After these assessments, subjects received one intra-articular injection in each knee, with each injection prepared from the vial(s) marked for that knee. One knee received TPX-100, and the contralateral knee received placebo, in a triple-blind fashion (subject, site, and sponsor all blinded to treatment assignment). Subjects were monitored for adverse events during the injections and for a few hours after the injections. Vital signs were also monitored after the injections.
On the 7th, 14th, and 21st days after the first dosing, subjects received the second, third, and fourth (last) dosing of the same study materials, respectively, as well as safety and adverse event assessments in the same way as the first dosing day.
Subjects returned to their respective study sites at 3, 6 and 12 months after the first dosing day for follow-up evaluations. In addition, the study sites monitored the subject's condition through telephone contact 9 months after the first dosing day. During the 3, 6, and 12 months post-treatment follow-up on-site visits, subjects were evaluated by physical examination, vital signs, serum chemistry, as well as KOOS. Adverse events and concomitant medications were also recorded.

[2] = tested on: standardized large cartilage defects; conditions: four weekly intra-articular injections, cited from earlier work
[3] = tested on: subjects with bilateral patello-femoral knee osteoarthritis; assay: Randomized double-blind placebo-controlled clinical study of TPX-100, efficacy by KOOS/WOMAC patient reported outcomes; assay type: in vivo, human; conditions: for Severity of pain going up or down stairs, treated vs placebo-treated knee (in words): p=0.004; for Pain alleviation in other activities or statuses of KOOS pain: activities other than going up or down stairs (and bending knee fully), any time point; for Knee functions, KOOS ADL (Function of Daily Living) and WOMAC function, treated vs placebo-treated knees: both 6 and 12 months after treatment, FIG. 12
Procedure: For this activity, the peptide of SEQ ID No. 1 was tested for its clinical safety and efficacy on a condition involving cartilage damage in a Phase 2 randomized double-blind controlled clinical trial with mild to severe knee osteoarthritis (OA) patients. See EXAMPLES.
The KOOS ADL (Function of Daily Living) consists of 17 questions asking degree of difficulty in functioning each knee during 17 different activities in daily living. Those 17 activities are broadly ranged from light to heavy duties. With regard to each activity, difficulty of each knee function is scored in 0-4 range where 0 as no difficulty and 4 as the most difficulty. The sum of the scores range from 0 to 68 (4×17), which is then converted to a 0-100 scale is KOOS ADL score. WOMAC function consists of the same questions with same scoring, except the total score range is not converted to 0-100 but remains 0-68.
The KOOS pain domain consists of 9 questions and each question is scored in 0-4 range. The sum of the scores, 0-36 (4×9), which is converted to a 0-100 scale to generate a KOOS pain score. While the first of the 9 questions asks for the frequency of knee pain, the other 8 questions ask for severity of knee pain during different activities or positions, where 0 is “never” experiencing pain and 4 is “always” experiencing pain. These 8 activities range from positions with little to no motion such as “at night while in bed” to those with high joint loading such as “going up or down stairs” (See FIG. 2). WOMAC pain consists of the same questions with the same scoring, except that the total score is not converted to a 100-point scale but remains in the range 0-36.
MRIs of both knees were evaluated by a central reader to determine the ICRS grade (gICRS) of each knee. If the cartilage of patello-femoral compartment in both knees fell within ICRS grades 1-3, or 4 with only focal defects, no defects greater than 1 cm, and all other inclusion criteria were met, with none of the exclusion criteria, the subject was registered. The randomization center randomized each subject to either Right knee active or Left knee active, with the active knee to receive TPX-100 and the contralateral knee to receive identical placebo.
For enrolled subjects, there was within-subject randomization, such that one knee received active drug injections, and the contralateral knee received identical placebo injections. Using subjects as their own control permits reduction of confounders such as weight, activity level, pain threshold, and uncharacterized genetic susceptibilities to OA progression. As two knees within a person form a matched set, the effects of individual-level confounders that are difficult to quantify (e.g. level of activity, genetic and epigenetic factors, pain threshold) are eliminated, increasing the power of the study to detect a treatment effect if one is present.
All KOOS subscale scores were analyzed. The primary analysis was carried out using a two-sided paired t-test at the 5% level of significance. The outcome variable was the difference between the change of the score of each subscale of KOOS from baseline in the treated knee (“Index Knee”) and the change from baseline in the placebo-treated knee (“Control Knee”).
Ninety-three (93) subjects who received 200 mg per dose of TPX-100 in one knee and placebo in contralateral knee were analyzed for efficacy.

[4] = stated as known, no test described, cited from earlier work
[5] = 12 months, 200 mg, listed as peptide of SEQ ID No. 1
[6] = 200 mg, listed as peptide of SEQ ID No. 1

Sequence: TDLQERGDNDISPFSGDGQPFKD [TPX-100]
- Dose-limiting toxicities ([1]; Part A, 20, 50, 100 and 200 mg per intra-articular injection, four weekly): no dose-limiting toxicities
- Safety and tolerability of treatments ([1]; throughout the study period): safe and well tolerated
- Severe adverse events related to drug treatment ([1]; throughout the study period): no severe adverse events likely or possibly related to the drug treatment
- Severity of treatment-related adverse events ([1]; throughout the study period): mild or moderate, transient
- Articular cartilage regeneration compared to vehicle control group ([2]; 125 mg and 250 mg, 6 months post-surgery): histologically-confirmed and statistically significant articular cartilage regeneration
- Safety and tolerability in goats ([2]; freely ambulatory animals): safe and well-tolerated
- Function improvement across the 17 activities of KOOS ADL, treated vs placebo-treated knee ([3]; 200 mg): observed in most of the 17 light to heavy activities
- Frequency of overall knee pain, Index vs Control knees (in words) ([3]; 12 months, 200 mg): significantly improved (p=0.04)
- Severity of pain bending knee fully, treated vs placebo-treated knee (in words) ([3]; 12 months, 200 mg): trend (p<0.09) of improvement
- Frequency of overall knee pain, Index vs Control knees (in words) [3, 5]: significantly reduced
- Severity of pain bending knee fully, treated vs placebo-treated knee (in words) [3, 5]: near statistically significant pain alleviation
- Severity of pain going up or down stairs, treated vs placebo-treated knee (in words) ([3]; 12 months, 200 mg): highly significant
- Severity of pain going up or down stairs, treated vs placebo-treated knee (in words) [3, 5]: statistically significant improvement
- Score Change from Baseline to 12 Months, Index: How often do you experience RIGHT/LEFT knee pain? ([3]; KOOS Pain Question 1 (frequency, score 0-4), TPX-100 treated knees, 200 mg intra-articular, 4 weekly doses, 12 months): −0.62
- Difference = [Index score change] − [Control score change]: How often do you experience RIGHT/LEFT knee pain? ([3]; KOOS Pain Question 1, TPX-100 vs placebo treated knees, baseline to 12 months, 200 mg): −0.26
- Score Change from Baseline to 12 Months, Index: Twisting/pivoting on your knee ([3]; KOOS Pain Question 2 (severity, score 0-4), TPX-100 treated knees, 200 mg intra-articular, 4 weekly doses, 12 months): −0.19
- Difference = [Index score change] − [Control score change]: Twisting/pivoting on your knee ([3]; KOOS Pain Question 2, TPX-100 vs placebo treated knees, baseline to 12 months, 200 mg): −0.09
- Score Change from Baseline to 12 Months, Index: Straightening knee fully moving ([3]; KOOS Pain Question 3 (severity, score 0-4), TPX-100 treated knees, 200 mg intra-articular, 4 weekly doses, 12 months): −0.30
- Difference = [Index score change] − [Control score change]: Straightening knee fully moving ([3]; KOOS Pain Question 3, TPX-100 vs placebo treated knees, baseline to 12 months, 200 mg): −0.12
- Score Change from Baseline to 12 Months, Index: Bending knee fully ([3]; KOOS Pain Question 4 (severity, score 0-4), TPX-100 treated knees, 200 mg intra-articular, 4 weekly doses, 12 months): −0.45
- Difference = [Index score change] − [Control score change]: Bending knee fully ([3]; KOOS Pain Question 4, TPX-100 vs placebo treated knees, baseline to 12 months, 200 mg): −0.24
- Score Change from Baseline to 12 Months, Index: Walking on flat surface ([3]; KOOS Pain Question 5 (severity, score 0-4), TPX-100 treated knees, 200 mg intra-articular, 4 weekly doses, 12 months): −0.25
- Difference = [Index score change] − [Control score change]: Walking on flat surface ([3]; KOOS Pain Question 5, TPX-100 vs placebo treated knees, baseline to 12 months, 200 mg): −0.12
- Score Change from Baseline to 12 Months, Index: Going up or down stairs ([3]; KOOS Pain Question 6 (severity, score 0-4), TPX-100 treated knees, 200 mg intra-articular, 4 weekly doses, 12 months): −0.51
- Difference = [Index score change] − [Control score change]: Going up or down stairs ([3]; KOOS Pain Question 6, TPX-100 vs placebo treated knees, baseline to 12 months, 200 mg): −0.33
- Score Change from Baseline to 12 Months, Index: At night while in bed ([3]; KOOS Pain Question 7 (severity, score 0-4), TPX-100 treated knees, 200 mg intra-articular, 4 weekly doses, 12 months): −0.19
- Difference = [Index score change] − [Control score change]: At night while in bed ([3]; KOOS Pain Question 7, TPX-100 vs placebo treated knees, baseline to 12 months, 200 mg): 0.00
- Difference = [Index score change] − [Control score change]: Sitting or lying ([3]; KOOS Pain Question 8, TPX-100 vs placebo treated knees, baseline to 12 months, 200 mg): −0.02
- Score Change from Baseline to 12 Months, Index: Standing upright ([3]; KOOS Pain Question 9 (severity, score 0-4), TPX-100 treated knees, 200 mg intra-articular, 4 weekly doses, 12 months): −0.34
- Difference = [Index score change] − [Control score change]: Standing upright ([3]; KOOS Pain Question 9, TPX-100 vs placebo treated knees, baseline to 12 months, 200 mg): −0.16
- Pain alleviation in other activities or statuses of KOOS pain ([3]; 200 mg): did not show statistically significant improvements
- Pain alleviation in other activities or statuses of KOOS pain [3, 6]: did not show pain alleviation with statistical significance or trend
- KOOS Sports and Recreation subscale, Index vs Control knees ([3]; at 6 months, 200 mg): clinically meaningful and statistically significant improvement
- KOOS knee related quality of life (QOL) subscale, Index vs Control knees ([3]; at 12 months, 200 mg): clinically meaningful and statistically significant improvement
- Total KOOS pain subscale, Index vs Control knees ([3]; at 12 months, 200 mg): clinically meaningful and statistical trend (p<0.09) of improvement
- Total KOOS pain subscale, Index vs Control knees ([3]; at 12 months, 200 mg, listed as peptide of SEQ ID No. 1): clinically meaningful improvement
- Knee functions, KOOS ADL (Function of Daily Living) and WOMAC function, treated vs placebo-treated knees ([3]; 200 mg): clinically meaningful and statistically significant (p<0.05) improvement
- Knee functions, KOOS ADL (Function of Daily Living) and WOMAC function, treated vs placebo-treated knees [3, 6]: clinically meaningful and highly statistically significant (p=0.008) improvement
- Total KOOS pain score, treated vs placebo treated knees ([3]; until 6 months after the treatment, 200 mg): very similar
- Analgesic or anti-inflammatory activities [4]: does not have any analgesic or anti-inflammatory activities
- Analgesic or anti-inflammatory activities ([4]; listed as peptide of SEQ ID No. 1): does not have any anti-inflammatory or analgesic activities
